Assay results from patent publication US10633389B2, “CARM1 inhibitors and uses thereof” (Epizyme, Inc., priority 2013, dated 2020).

What was measured:
human CARM1 (PRMT4) = human CARM1 (PRMT4) (Homo sapiens (Human), UniProt Q86X55); assay: CARM1 enzyme assay on peptide substrate (3H-SAM Flashplate); details: Biochemical potencies, read-out: Biochem IC50
Source text: S-adenosylmethionine (SAM), S-adenosylhomocysteine (SAH), bicine, Tween20, dimethylsulfoxide (DMSO), bovine skin gelatin (BSG), sodium butyrate and Tris(2-carboxyethyl)phosphine hydrochloride solution (TCEP) were purchased from Sigma-Aldrich at the highest level of purity possible. ^3H-SAM was purchase from American Radiolabeled Chemicals with a specific activity of 80 Ci/mmol. 384-well streptavidin Flashplates were purchased from PerkinElmer.
Peptide representative of human histone H3 residues 16-30 was synthesized with an N-terminal linker-affinity tag motif and a C-terminal amide cap by 21st Century Biochemicals. […] The sequence was Biot-Ahx-[…]-amide and contained a monomethylated arginine at position 26 (SEQ ID NO.:1).
The gene sequence encoding isoform 1 containing a deletion of amino acids 539-561 was amplified subsequently and subcloned into pFastBacMam (Viva Biotech).
Recombinant baculovirus were generated according to Bac-to-Bac kit instructions (Life Technologies). Protein over-expression was accomplished by infecting exponentially growing HEK 293F cell culture at 1.3×10^6 cell/ml with virus (MOI=10) in the presence of 8 mM sodium butyrate. Infections were carried out at 37° C. for 48 hours, harvested by centrifugation, and stored at −80° C. for purification.
Expressed full-length human Flag- and His-tagged CARM1 protein was purified from cell paste by anti-flag M2 affinity chromatography with resin equilibrated with buffer containing 20 mM Tris, 150 mM NaC, 5% glycerol, pH 7.8. Column was washed with 500 mM NaCl in buffer A and Flag-CARM1-His was eluted with 200 ug/ml FLAG peptide in buffer A. Pooled fractions were dialyzed in 20 mM Tris, 150 mM NaCl, 5% glycerol and 1 mM DTT, pH 7.8.
The assays were all performed in a buffer consisting of 20 mM Bicine (pH=7.6), 1 mM TCEP, 0.005% BSG, and 0.002% Tween 20, prepared on the day of use. Compounds in 100% DMSO (1 ul) were spotted into a polypropylene 384-well V-bottom plates (Greiner) using a Platemate Plus outfitted with a 384-channel head (Thermo Scientific). DMSO (1 ul) was added to Columns 11, 12, 23, 24, rows A-H for the maximum signal control and 1 ul of SAH, a known product and inhibitor of CARM1, was added to columns 11, 12, 23, 24, rows I-P for the minimum signal control. A cocktail (40 ul) containing the CARM1 enzyme was added by Multidrop Combi (Thermo-Fisher). The compounds were allowed to incubate with CARM1 for 30 min at room temperature, then a cocktail (10 ul) containing ^3H-SAM and peptide was added to initiate the reaction (final volume=51 ul). The final concentrations of the components were as follows: CARM1 was 0.25 nM, ^3H-SAM was 30 nM, peptide was 250 nM, SAH in the minimum signal control wells was 1 mM, and the DMSO concentration was 2%. The assays were stopped by the addition of non-radiolabeled SAM (10 ul) to a final concentration of 300 uM, which dilutes the ^3H-SAM to a level where its incorporation into the peptide substrate is no longer detectable. 50 ul of the reaction in the 384-well polypropylene plate was then transferred to a 384-well Flashplate and the biotinylated peptides were allowed to bind to the streptavidin surface for at least 1 hour before being washed once with 0.1% Tween20 in a Biotek ELx405 plate washer. The plates were then read in a PerkinElmer TopCount plate reader to measure the quantity of ^3H-labeled peptide bound to the Flashplate surface, measured as disintegrations per minute (dpm) or alternatively, referred to as counts per minute (cpm).
The Hill Coefficient normally allowed to float but may also be fixed at 1 in a 3-parameter fit.

[1] = tested on: asymmetric di-methyl PABP1 in RKO cells; assay: RKO methylation assay, In Cell Western (ICW) for asymmetric di-methyl PABP1; format: cell-based; details: Homo sapiens, RKO, Cellular potencies, ICW PABP1me2a
In short: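 In-cell Western on fixed RKO cells after 48 h compound exposure: anti-asymmetric di-methyl PABP1 signal at 800 nm over DRAQ5 DNA signal at 700 nm. Percent inhibition set between DMSO wells and wells with 20 μM reference compound; IC50 curves fitted in triplicate.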

Chain of human CARM1 (PRMT4) (Q86X55 other isoform, or with tags, fused parts or gaps isoform Q86X55-1): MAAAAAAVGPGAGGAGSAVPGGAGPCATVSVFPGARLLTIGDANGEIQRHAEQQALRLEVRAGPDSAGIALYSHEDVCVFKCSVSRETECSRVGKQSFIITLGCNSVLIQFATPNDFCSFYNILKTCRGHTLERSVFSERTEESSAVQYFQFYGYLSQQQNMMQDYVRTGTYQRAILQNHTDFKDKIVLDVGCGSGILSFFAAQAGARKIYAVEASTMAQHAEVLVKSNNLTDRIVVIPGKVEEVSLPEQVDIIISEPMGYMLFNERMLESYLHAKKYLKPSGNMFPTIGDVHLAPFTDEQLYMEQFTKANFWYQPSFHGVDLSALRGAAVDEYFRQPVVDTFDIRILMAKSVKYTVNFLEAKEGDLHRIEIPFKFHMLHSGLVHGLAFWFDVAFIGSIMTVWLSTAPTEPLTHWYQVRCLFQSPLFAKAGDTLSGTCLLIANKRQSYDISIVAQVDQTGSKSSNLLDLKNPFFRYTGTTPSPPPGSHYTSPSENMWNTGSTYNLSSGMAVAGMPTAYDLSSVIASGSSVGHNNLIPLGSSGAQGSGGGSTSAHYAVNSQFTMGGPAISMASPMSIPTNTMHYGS

Compound	IC50 (human CARM1 (PRMT4)) [nM]	IC50 [1] [nM]
CNCC(O)COc1cccc(-c2nc(N[C@@H]3CCOC3)c(C)c(N3CCNC(C(F)(F)F)C3)n2)c1 (stereo partly drawn) [Example 428-1a]	100 to 1000	10000 to 20000
CNCC(O)COc1cc(OC)cc(-c2nc(NC3CCOC3)c(C)c(N3CCN(C(C)=O)[C@@H](C)C3)n2)c1 (stereo partly drawn) [Example 432-1a]	100 to 1000	10000 to 20000
CNCC(O)COc1cccc(-c2nc(N[C@@H]3CCOC3)c(F)c(N3CCOCC3)n2)c1 (stereo partly drawn) [Example 433-1a]	100 to 1000	5000 to 10000
CNCC(O)COc1cccc(-c2nc(N[C@@H]3CCOC3)c(C)c(N3CCN(C(C)=O)CC34CC4)n2)c1 (stereo partly drawn) [Example 438-1a]	100 to 1000	10000 to 20000
CNCC(O)COc1cccc(-c2nc(N[C@@H]3CCOC3)c(C)c(N3CCC[C@@H]3C(=O)NC)n2)c1 (stereo partly drawn) [Example 450-1a]	100 to 1000	10000 to 20000
CNCC(O)COc1cccc(-c2nc(N[C@@H]3CCOC3)c(C)c(-c3cnccn3)n2)c1 (stereo partly drawn) [Example 451-1a]	100 to 1000	10000 to 20000
CNC[C@@H](O)COc1cccc(-c2nc(N[C@@H]3CCOC3)c(C)c(-c3cn(S(C)(=O)=O)c4ncncc34)n2)c1 [Example 453-1a]	100 to 1000	5000 to 10000
CNCC(O)COc1cccc(-c2nc(N[C@@H]3CCOC3)c(C)c(-c3ccnnc3)n2)c1 (stereo partly drawn) [Example 459-1a]	100 to 1000	10000 to 20000
CNCC(O)COc1cccc(-c2nc(N[C@@H]3CCOC3)c(C)c(-c3c(C)ncnc3C)n2)c1 (stereo partly drawn) [Example 460-1a]	100 to 1000	10000 to 20000
CNCC(O)COc1cccc(-c2nc(N[C@@H]3CCOC3)c(C)c(N3CCCC3c3nc(C)no3)n2)c1 (stereo partly drawn) [Example 472-1a]	100 to 1000	10000 to 20000

Continued, values first:

IC50 (human CARM1 (PRMT4)) [nM]	IC50 [1] [nM]	Compound
100 to 1000	10000 to 20000	CNCC(O)COc1cccc(-c2nc(N[C@@H]3CCOC3)c(C)c(N3CC[C@H](N(C)C(C)=O)C3)n2)c1 (stereo partly drawn) [Example 430-1a]
100 to 1000	10000 to 20000	CNCC(O)COc1cccc(-c2nc(NC3CCOC3)c(C)c(N3CC[C@H](S(C)(=O)=O)C3)n2)c1 (stereo partly drawn) [Example 431-1a]
100 to 1000	< 5000	CNCC(O)COc1cccc(-c2nc(N3CCCC4(CCOCC4)C3)cc(N(C)C3CCOCC3)n2)c1 (stereo not drawn) [Example 494-1a]
100 to 1000	< 5000	CCS(=O)(=O)N1CCN(c2cc(N(C)C3CCOCC3)nc(-c3cccc(OCC(O)CNC)c3)n2)C[C@@H]1C (stereo partly drawn) [Example 497-1a]
100 to 1000	5000 to 10000	CNCC(O)COc1cccc(-c2nc(C3CCN(C(=O)N(C)C)CC3)cc(N(C)C3CCOCC3)n2)c1 (stereo not drawn) [Example 515-1a]
100 to 1000	5000 to 10000	CNCC(O)COc1cccc(-c2nc(N3CCN(CC(F)F)CC3)cc(N(C)C3CCOCC3)n2)c1 (stereo not drawn) [Example 518-1a]
100 to 1000	5000 to 10000	CNCC(O)COc1cccc(-c2nc(N3CCN(S(C)(=O)=O)[C@@H](C)C3)cc(N(C)C3CCOCC3)n2)c1 (stereo partly drawn) [Example 520-1a]
100 to 1000	5000 to 10000	CNCC(O)COc1cccc(-c2nc(N3CCN(C(C)=O)C4(CC4)C3)cc(N(C)C3CCOCC3)n2)c1 (stereo not drawn) [Example 523-1a]
100 to 1000	5000 to 10000	CNCC(O)COc1cccc(-c2nc(C3CCN(S(C)(=O)=O)CC3)cc(N(C)C3CCOCC3)n2)c1 (stereo not drawn) [Example 527-1a]
100 to 1000	5000 to 10000	CNCC(O)COc1cccc(-c2nc(C(=O)NC3CCOCC3)cc(N(C)C3CCOCC3)n2)c1 (stereo not drawn) [Example 530-1a]
100 to 1000	5000 to 10000	CNCC(O)COc1cccc(-c2nc(N(C)c3cnc(OC)nc3)cc(N(C)C3CCOCC3)n2)c1 (stereo not drawn) [Example 532-1a]
100 to 1000	5000 to 10000	CNCC(O)COc1cccc(-c2nc(C3CCN(C(=O)OC)CC3)cc(N(C)C3CCOCC3)n2)c1 (stereo not drawn) [Example 533-1a]
100 to 1000	5000 to 10000	CNCC(O)COc1cccc(-c2nc(-c3c(C)n[nH]c3C)cc(N(C)C3CCOCC3)n2)c1 (stereo not drawn) [Example 534-1a]
100 to 1000	5000 to 10000	CNCC(O)COc1cccc(-c2nc(-c3ccnc(C(=O)N(C)C)c3)cc(N(C)C3CCOCC3)n2)c1 (stereo not drawn) [Example 535-1a]
